We go through 15 compounds from patent publication US20260015350A1, “AZAQUINAZOLINE PAN-KRAS INHIBITORS” (Mirati Therapeutics, Inc., priority 2022, published 2026).

In assay [1] the target is T1, KRas^G12D (Homo sapiens, UniProt P01116, G12D).
T1 construct: Biotinylated KRas (corresponding to amino acids 1-169, produced at Accelegan Inc.); biotin (biotinylated); purchased Accelegan Inc
In words: KRas binding assay (TR-FRET tracer displacement), KRas G12D. (In general: Time-resolved FRET reads energy transfer from a long-lived donor to a nearby acceptor.)

Assay [2] concerns the target T2, KRas^G12R (Homo sapiens, UniProt P01116, G12R).
T2 construct: Biotinylated KRas (corresponding to amino acids 1-169, produced at Accelegan Inc.); biotin (biotinylated); purchased Accelegan Inc
In words: KRas binding assay (TR-FRET tracer displacement), KRas G12R.

The target in assay [3] is T3, KRas^G12V (Homo sapiens, UniProt P01116, G12V).
T3 construct: Biotinylated KRas (corresponding to amino acids 1-169, produced at Accelegan Inc.); biotin (biotinylated); purchased Accelegan Inc
In words: KRas binding assay (TR-FRET tracer displacement), KRas G12V.

In assay [4] the test system is KRas-mediated phosphorylation of ERK in H727 cells. In words: Inhibition of KRas-mediated phosphorylation of ERK (Cisbio HTRF pERK), H727 cells. It counts as cell-based. As to conditions: Homo sapiens, NCI-H727, H727 cells; HTRF pERK. The method, then:
(§1) Inhibition of KRas Phosphorylation of ERK (HTRF) by Exemplary Compounds of Formula (I) Cisbio HTRF Advanced PERK Assay Catalog #64[…] […] Add 10 mL of media to stop trypsinizing. Pipette the cells into a conical bottom 50 mL centrifuge tube and centrifuge 5 min×1000 rpm. […] Re-suspend the cell pellet in media, take a cell count, and then adjust the cell density using fresh media. […] Seed 6,000 cells into cell culture plate with 50 μL media. […] Use Tecan to complete the compound addition. Compounds start from 10 uM top, 3-fold dilution, and 10 doses. The final DMSO concentration is 0.8%. Dispensed 0.2 uM Trametinib as Min control. […] Incubate cell plate for 3 hrs in the incubator. […] Dilute 1 volume of 4× lysis buffer with 3 volumes of deionized water. […] Keep lysis buffer on the ice. […] At the end of the compound treatment, flick-off the media. […] Add 35 μL of lysis buffer per well using a Multidrop Combi. Then place on a plate agitator shaking at 300 rpm at 4° C. for 40 mins. […] Make up the HTRF antibody buffer. For each assay plate, mix 50 μL of d2-conjugate antibody with 950 μL of detection buffer. Similarly, mix 50 μL of Cryptate antibody with 950 μL of detection buffer. Then mix the two diluted antibodies together. […] Dispense 3.4 μL the antibody buffer to wells of an empty assay plate. Seal the plate and centrifuge plate 30 sec×1000 rpm. […] At the end of the 4° C. lysis, centrifuge the lysate plates 3 mins×1500 rpm. […] Use the Bravo to transfer 13.6 μL of lysate from cell culture plate to assay plate. Then incubate assay plate for 2 hrs at room temperature. 8. At the end of incubation, read plate on the Envision after centrifuging plate 30 sec×1000 rpm.

Assay [5] has as its system KRas-mediated phosphorylation of ERK in AsPC-1 cells. In words: Inhibition of KRas-mediated phosphorylation of ERK (Cisbio HTRF pERK), AsPC-1 cells. The format is cell-based. As to conditions: Homo sapiens, ASPC1, AsPC-1 cells; HTRF pERK. The method, then: as §1

T2 sequence (P01116 1-169 isoform P01116-2 G12R): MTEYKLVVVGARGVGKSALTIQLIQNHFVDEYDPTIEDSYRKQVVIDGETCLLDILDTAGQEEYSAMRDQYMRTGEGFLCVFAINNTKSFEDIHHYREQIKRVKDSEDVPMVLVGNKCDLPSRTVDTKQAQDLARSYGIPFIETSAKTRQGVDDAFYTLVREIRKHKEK
T3 sequence (P01116 1-169 isoform P01116-2 G12V): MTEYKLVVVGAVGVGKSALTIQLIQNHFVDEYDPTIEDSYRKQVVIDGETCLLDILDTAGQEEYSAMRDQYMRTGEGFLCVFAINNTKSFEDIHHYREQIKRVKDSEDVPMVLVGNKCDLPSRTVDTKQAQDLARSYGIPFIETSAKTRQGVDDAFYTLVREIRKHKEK
T1 sequence (P01116 1-169 isoform P01116-2 G12D): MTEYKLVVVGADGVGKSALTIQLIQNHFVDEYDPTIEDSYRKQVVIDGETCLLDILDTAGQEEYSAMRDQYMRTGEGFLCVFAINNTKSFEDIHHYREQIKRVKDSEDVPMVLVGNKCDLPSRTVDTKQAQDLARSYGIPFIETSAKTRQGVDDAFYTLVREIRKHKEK

As for `CCc1cccc2cccc(-c3ncc4c(C5CCCOCC5)nc(OCC56CCCN5CCC6)nc4c3F)c12` (racemic) [Example 723, rac-(R)-7-(8-ethylnaphthalen-1-yl)-8-fluoro-4-(oxepan-4-yl)-2-((tetrahydro-1H-pyrrolizin-7a(5H)-yl)methoxy)pyrido[4,3-d]pyrimidine], the IC50 in assay [1] was above 100000 nM; in assay [2], 27500 nM; in assay [3], 42800 nM.
In the case of `Fc1c(-c2cccc3cccc(F)c23)ncc2c(C3=CCCCC3)nc(OCC34CCCN3CCC4)nc12` [Example 524, 4-(cyclohex-1-en-1-yl)-8-fluoro-7-(8-fluoronaphthalen-1-yl)-2-((hexahydro-1H-pyrrolizin-7a-yl)methoxy)pyrido[4,3-d]pyrimidine], the IC50 in assay [1] was above 100000 nM; in assay [2], above 100000 nM; in assay [3] it was 70900 nM.
For `CCc1c(F)ccc2cc(O)cc(-c3ncc4c(CCc5ccnn5C)nc(OC[C@@]56CCCN5C[C@H](F)C6)nc4c3F)c12` [Example 545, 5-ethyl-6-fluoro-4-(8-fluoro-2-(((2R,7aS)-2-fluorotetrahydro-1H-pyrrolizin-7a(5H)-yl)methoxy)-4-(2-(1-methyl-1H-pyrazol-5-yl)ethyl)pyrido[4,3-d]pyrimidin-7-yl)naphthalen-2-ol], the IC50 in assay [1] stood at 4970 nM; in assay [2], 656 nM; in assay [3] it was 431 nM.
For the compound `CCc1c(F)ccc2cc(O)cc(-c3ncc4c(N5CCCC(C6CCNC6=O)C5)nc(OC[C@@]56CCCN5C[C@H](F)C6)nc4c3F)c12` (stereo partly drawn) [Example 616, 3-(1-(7-(8-ethyl-7-fluoro-3-hydroxynaphthalen-1-yl)-8-fluoro-2-(((2R,7aS)-2-fluorohexahydro-1H-pyrrolizin-7a-yl)methoxy)pyrido[4,3-d]pyrimidin-4-yl)piperidin-3-yl)pyrrolidin-2-one], the values for the IC50 in assay [4] and in assay [5] were 1140 nM and 3620 nM, respectively.
With `CCc1c(F)ccc2cc(O)cc(-c3ncc4c(N5CC6OCCN(C(C)=O)C6C5)nc(OC[C@@]56CCCN5C[C@H](F)C6)nc4c3F)c12` (stereo partly drawn) [Example 623, 1-(6-(7-(8-ethyl-7-fluoro-3-hydroxynaphthalen-1-yl)-8-fluoro-2-(((2R,7aS)-2-fluorotetrahydro-1H-pyrrolizin-7a(5H)-yl)methoxy)pyrido[4,3-d]pyrimidin-4-yl)hexahydropyrrolo[3,4-b][1,4]oxazin-4(4aH)-yl) ethan-1-one], the IC50 in assay [4] and in assay [5] was above 10000 nM throughout.
As for `CCc1c(F)ccc2cc(O)cc(-c3ncc4c(NCc5c[nH]nc5NC(=O)C5COC5)nc(OC[C@@]56CCCN5C[C@H](F)C6)nc4c3F)c12` [Example 649, N-(4-(((7-(8-ethyl-7-fluoro-3-hydroxynaphthalen-1-yl)-8-fluoro-2-(((2R,7aS)-2-fluorohexahydro-1H-pyrrolizin-7a-yl)methoxy)pyrido[4,3-d]pyrimidin-4-yl)amino)methyl)-1H-pyrazol-3-yl) oxetane-3-carboxamide], the concentration for half-maximal inhibition (IC50) stood at 85 nM in assay [1], 38 nM in assay [2] and 9 nM in assay [3].
In the same order, the values of `CCc1c(F)ccc2cc(O)cc(-c3ncc4c(NCc5cc(C(=O)N(C)C)n(CC#N)n5)nc(OC[C@@]56CCCN5C[C@H](F)C6)nc4c3F)c12` [Example 658, 1-(cyanomethyl)-3-(((7-(8-ethyl-7-fluoro-3-hydroxynaphthalen-1-yl)-8-fluoro-2-(((2R,7aS)-2-fluorotetrahydro-1H-pyrrolizin-7a(5H)-yl)methoxy)pyrido[4,3-d]pyrimidin-4-yl)amino)methyl)-N,N-dimethyl-1H-pyrazole-5-carboxamide] are 224 nM, 65 nM and 7 nM.
Turning to `CCc1c(F)ccc2cc(O)cc(-c3ncc4c(NCc5cc(C(=O)N(C)C)nn5CCC#N)nc(OC[C@@]56CCCN5C[C@H](F)C6)nc4c3F)c12` [Example 669, 1-(2-cyanoethyl)-5-(((7-(8-ethyl-7-fluoro-3-hydroxynaphthalen-1-yl)-8-fluoro-2-(((2R,7aS)-2-fluorohexahydro-1H-pyrrolizin-7a-yl)methoxy)pyrido[4,3-d]pyrimidin-4-yl)amino)methyl)-N,N-dimethyl-1H-pyrazole-3-carboxamide], the IC50 in assay [4] was 4510 nM; in assay [5], above 10000 nM.
Consider `CCc1c(F)ccc2cc(O)cc(-c3ncc4c(NCc5cc(C(=O)N(C)C)nn5CC5COC5)nc(OC[C@@]56CCCN5C[C@H](F)C6)nc4c3F)c12` [Example 683, 5-(((7-(8-ethyl-7-fluoro-3-hydroxynaphthalen-1-yl)-8-fluoro-2-(((2R,7aS)-2-fluorohexahydro-1H-pyrrolizin-7a-yl)methoxy)pyrido[4,3-d]pyrimidin-4-yl)amino)methyl)-N,N-dimethyl-1-(oxetan-3-ylmethyl)-1H-pyrazole-3-carboxamide], for which the IC50 in assay [4] and in assay [5] was above 10000 nM throughout.
Turning to `CCc1c(F)ccc2cc(O)cc(-c3ncc4c(NCc5cc(C(=O)N(C)C)n(CC6COC6)n5)nc(OC[C@@]56CCCN5C[C@H](F)C6)nc4c3F)c12` [Example 684A, 3-(((7-(8-ethyl-7-fluoro-3-hydroxynaphthalen-1-yl)-8-fluoro-2-(((2R,7aS)-2-fluorohexahydro-1H-pyrrolizin-7a-yl)methoxy)pyrido[4,3-d]pyrimidin-4-yl)amino)methyl)-N,N-dimethyl-1-(oxetan-3-ylmethyl)-1H-pyrazole-5-carboxamide], the IC50 in assay [4] and in assay [5] was above 10000 nM in each case.
For `CCc1c(F)ccc2cc(O)cc(-c3ncc4c(NCc5cc(C(=O)N(C)C)n(C6CS(=O)(=O)C6)n5)nc(OC[C@@]56CCCN5C[C@H](F)C6)nc4c3F)c12` [Example 692, 1-(1,1-dioxidothietan-3-yl)-3-(((7-(8-ethyl-7-fluoro-3-hydroxynaphthalen-1-yl)-8-fluoro-2-(((2R,7aS)-2-fluorohexahydro-1H-pyrrolizin-7a-yl)methoxy)pyrido[4,3-d]pyrimidin-4-yl)amino)methyl)-N,N-dimethyl-1H-pyrazole-5-carboxamide], the IC50 in assay [4] was 7030 nM; in assay [5] it was above 10000 nM.
For `CCc1cccc2cccc(-c3ncc4c(C5CCCCC5)nc(OCC56CCCN5CCC6)nc4c3F)c12` [Example 722, 4-cyclohexyl-7-(8-ethylnaphthalen-1-yl)-8-fluoro-2-((hexahydro-1H-pyrrolizin-7a-yl)methoxy)pyrido[4,3-d]pyrimidine], the IC50 is above 100000 nM in assay [1], 30000 nM in assay [2] and 42900 nM in assay [3].
Regarding `CCc1c(F)ccc2cccc(-c3ncc4c(N5C[C@@H]6C[C@H](C5)[C@H](O)C6)nc(OC[C@@]56CCCN5C[C@H](F)C6)nc4c3F)c12` [Example 754, (1R,5R,6R)-3-(7-(8-ethyl-7-fluoronaphthalen-1-yl)-8-fluoro-2-(((2R,7aS)-2-fluorohexahydro-1H-pyrrolizin-7a-yl)methoxy)pyrido[4,3-d]pyrimidin-4-yl)-3-azabicyclo[3.2.1]octan-6-ol], the IC50 in assay [4] stood at 516 nM; in assay [5] it was 747 nM.
Regarding `CCc1c(F)ccc2cc(OC)cc(-c3ncc4c(N5C[C@@H]6C[C@H](C5)[C@H](O)C6)nc(OC[C@@]56CCCN5C[C@H](F)C6)nc4c3F)c12` [Example 777, (1R,5R,6R)-3-(7-(8-ethyl-7-fluoro-3-methoxynaphthalen-1-yl)-8-fluoro-2-(((2R,7aS)-2-fluorohexahydro-1H-pyrrolizin-7a-yl)methoxy)pyrido[4,3-d]pyrimidin-4-yl)-3-azabicyclo[3.2.1]octan-6-ol], the IC50 amounted to 4190 nM in assay [1], 1320 nM in assay [2] and 1050 nM in assay [3].
`CCc1c(F)ccc2cc(O)cc(-c3ncc4c(NCc5cn(C(=O)N(C)C)nc5NC(=O)C5CCC5O)nc(OC[C@@]56CCCN5C[C@H](F)C6)nc4c3F)c12` (stereo partly drawn) [Example 819, 4-(((7-(8-ethyl-7-fluoro-3-hydroxynaphthalen-1-yl)-8-fluoro-2-(((2R,7aS)-2-fluorotetrahydro-1H-pyrrolizin-7a(5H)-yl)methoxy)pyrido[4,3-d]pyrimidin-4-yl)amino)methyl)-3-(2-hydroxycyclobutane-1-carboxamido)-N,N-dimethyl-1H-pyrazole-1-carboxamide]: the IC50 amounted to 1130 nM in assay [1], 86 nM in assay [2] and 24 nM in assay [3].

What is called IC50 is the midpoint of a concentration-inhibition curve. Read a high IC50 as weaker potency.
